These results are taken from patent US8344002B2, “Compound having β-secretase inhibitory activity” (priority 2007, dated 2013).

T1 sequence (P56817 46-460 limits assumed): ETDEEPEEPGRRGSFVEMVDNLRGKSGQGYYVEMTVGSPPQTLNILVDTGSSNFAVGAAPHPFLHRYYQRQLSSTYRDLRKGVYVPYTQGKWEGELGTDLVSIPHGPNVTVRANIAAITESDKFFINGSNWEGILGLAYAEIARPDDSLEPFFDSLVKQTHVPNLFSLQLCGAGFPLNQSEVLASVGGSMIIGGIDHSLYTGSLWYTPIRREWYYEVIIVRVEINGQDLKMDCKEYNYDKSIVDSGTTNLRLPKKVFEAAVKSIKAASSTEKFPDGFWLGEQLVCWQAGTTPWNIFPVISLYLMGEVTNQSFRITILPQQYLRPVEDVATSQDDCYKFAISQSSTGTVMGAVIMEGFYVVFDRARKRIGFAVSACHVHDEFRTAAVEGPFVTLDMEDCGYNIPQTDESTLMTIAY

The test concerns the target T1, recombinant human BACE-1 (rhBACE-1) (Homo sapiens, UniProt P56817).
T1 construct: expressed as only an extracellular region (amino acid 1-460 residues) of recombinant human β-secretase; His tag (C); purchased R&D systems (Minneapolis, Minn.); host or cells: murine myeloma cell line NS0
Put plainly: BACE1 inhibitory activity, rhBACE-1 with fluorogenic peptide substrate, reverse phase HPLC. Type of test: biochemical. Particulars: inhibitor 2 μM; MES buffer pH 5.0, 37° C., 60 minutes; read-out: Inhibitory rate (%) (2 μM). From the text:
Experiment Regarding Measurement of BACE1 Inhibitory Activity Enzyme Used in Measurement As an enzyme having β-secretase activity, recombinant human BACE-1 (rhBACE-1) purchased from R&D systems (Minneapolis, Minn.) was used. rhBACE-1 is expressed as only an extracellular region ([…] residues) of recombinant human β-secretase, with a His tag at its carboxyl terminus in murine myeloma cell line, NS0. Purified secreted rhBACE1 is a mixture of a pro entity (about 75 kDa) and a mature entity (about 72 kDa). […] Assessment of Enzyme Inhibitory Activity […] After incubation at 37° C. for 60 minutes, 20 μL of 20% trichloroacetic acid was added to stop the reaction. And, inhibition % was calculated by measuring a fluorescent intensity of the N-terminal fragment (Ex, 328 nm; […]
Regarding `C[C@@H](NC(=O)c1cc(=O)cc(C(=O)N[C@@H](Cc2ccccc2)[C@H](O)C(=O)Nc2cccc(-c3nn[nH]n3)c2)o1)c1ccccc1` [Example 1], the inhibition at 2 µM amounted to 70.1%.
The figure for `O=C(N[C@@H](Cc1ccccc1)[C@H](O)C(=O)Nc1cccc(-c2nn[nH]n2)c1)c1cc(=O)cc(C(=O)N(Cc2ccccc2)Cc2ccccc2)o1` [Example 2] is 28.8%; for `C[C@@H](NC(=O)c1cc(=O)cc(C(=O)N[C@@H](Cc2ccccc2)[C@H](O)C(=O)Nc2cccc(-c3nn[nH]n3)c2)o1)c1ccc([N+](=O)[O-])cc1` [Example 3] it is 26.8%; for `COc1ccc([C@@H](C)NC(=O)c2cc(=O)cc(C(=O)N[C@@H](Cc3ccccc3)[C@H](O)C(=O)Nc3cccc(-c4nn[nH]n4)c3)o2)cc1` [Example 5] it is 70.4%.
On to `CN(Cc1ccccc1)C(=O)c1cc(=O)cc(C(=O)N[C@@H](Cc2ccccc2)[C@H](O)C(=O)Nc2cccc(-c3nn[nH]n3)c2)o1` [Example 6], for which the inhibition at 2 µM was 66.9%.
The value for `C[C@@H](NC(=O)c1cc(=O)cc(C(=O)NC(Cc2ccccc2)[C@H](O)C(=O)Nc2cccc(-c3nn[nH]n3)c2)[nH]1)c1ccccc1` (stereo partly shown) [Example 7] was 50.8%; that for `CC(C)(NC(=O)c1cc(=O)cc(C(=O)NC(Cc2ccccc2)[C@H](O)C(=O)Nc2cccc(-c3nn[nH]n3)c2)[nH]1)c1ccccc1` (stereo partly shown) [Example 8] was 65.1%; that for `C[C@@H](NC(=O)c1cccc(C(=O)NC(Cc2ccccc2)[C@H](O)C(=O)Nc2cccc(-c3nn[nH]n3)c2)n1)c1ccccc1` (stereo partly shown) [Example 9] was 65.6%.
The figure for `CC(C)(NC(=O)c1cccc(C(=O)NC(Cc2ccccc2)[C@H](O)C(=O)Nc2cccc(-c3nn[nH]n3)c2)n1)c1ccccc1` (stereo partly shown) [Example 10] is 69.1%; for `O=C(NC(Cc1ccccc1)[C@H](O)C(=O)Nc1cccc(-c2nn[nH]n2)c1)c1cc(=O)cc(C(=O)N2COCC2c2ccccc2)o1` (stereo partly shown) [Example 13] it is 95.6%.
The value for `O=C(NC(Cc1ccccc1)[C@H](O)C(=O)Nc1cccc(-c2nn[nH]n2)c1)c1cc(=O)cc(C(=O)N2COCC2c2ccccc2)[nH]1` (stereo partly shown) [Example 14] was 82.7%.
Regarding `O=C(NC(Cc1ccccc1)[C@H](O)C(=O)Nc1cccc(-c2nn[nH]n2)c1)c1cccc(C(=O)N2COCC2c2ccccc2)n1` (stereo partly shown) [Example 15], the inhibition at 2 µM came to 92.6%.
Regarding `CS(=O)(=O)Oc1cc(C(=O)NC(Cc2ccccc2)[C@H](O)C(=O)Nc2cccc(-c3nn[nH]n3)c2)nc(C(=O)N2COCC2c2ccccc2)c1` (stereo partly shown) [Example 16], the inhibition at 2 µM was found to be 95.6%.
On to `CC(C)(NC(=O)c1cccc(C(=O)NC(Cc2ccccc2)[C@H](O)C(=O)NS(=O)(=O)C(F)(F)F)n1)c1ccccc1` (stereo partly shown) [Example 17], for which the inhibition at 2 µM was found to be 37.4%.
The value for `CC(C)(NC(=O)c1cc(=O)cc(C(=O)N[C@@H](Cc2ccccc2)[C@H](O)C(=O)Nc2cccc(-c3nn[nH]n3)c2)o1)c1ccccc1` [Example 21] was 80.8%; that for `C[C@@H](NC(=O)c1cc(=O)cc(C(=O)N[C@@H](Cc2ccccc2)[C@H](O)C(=O)Nc2cccc(-c3nn[nH]n3)c2)o1)c1ccc(F)cc1` [Example 22] was 75.8%.
